Data on ten compounds can be found in ChEMBL document CHEMBL1201862, “PubChem BioAssay data set” (2004).

Structures are written as SMILES.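 Compound exposure: 48 hours, 5 concentrations, 96-well plates. GI50 marks 50% less growth.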 The source made the active and inactive calls. Rule as the data show it: active = GI50 up to about 1.1 µM and inactive = higher.

Among the test systems are T47D; UACC-62; K562; RPMI-8226; MOLT-4; HOP-62; OVCAR-8; OVCAR-5; BT-549; HCC 2998; KM12; U-251; MDA-N; OVCAR-4; ACHN; SW-620; A498; NCI-H460; HL-60; SK-MEL-5.
What all share (assay): NCI tumour cell line growth inhibition, 48 h

In the case of `Cc1nnc(SCc2nc(C#N)c(C#N)nc2CSc2nnc(C)s2)s1`, the GI50 with T47D was 5.73 µM (inactive); with UACC-62 it was 15.8 µM (inactive); with K562 it was 4.37 µM (inactive); in the experiment on RPMI-8226, 2.93 µM (inactive); with MOLT-4, 2.51 µM (inactive); with HOP-62, 19.1 µM (inactive). The GI50 in the experiment on OVCAR-8 was 12.9 µM (inactive); with OVCAR-5 it was 18.1 µM (inactive); with BT-549, 16.2 µM (inactive); in the experiment with HCC 2998, 16.5 µM (inactive); in the experiment on KM12, 19.3 µM (inactive); with U-251 it was 18.7 µM (inactive). For the same compound, the GI50 in the experiment on MDA-N was 17.6 µM (inactive); in the experiment with OVCAR-4 it was 15.2 µM (inactive); with ACHN, 8.53 µM (inactive); in the experiment on SW-620, 3.43 µM (inactive); with A498 it was 27.4 µM (inactive); with NCI-H460, 24.2 µM (inactive). For the same compound, the GI50 was 1.79 µM (inactive) with HL-60 and 15 µM (inactive) with SK-MEL-5.
Regarding `O=C(O)c1nc2ccc(Cl)cc2[nH]c1=O`, the GI50 in the experiment with T47D, in the experiment on UACC-62, in the experiment with K562, in the experiment on RPMI-8226, in the experiment on MOLT-4 and in the experiment with HOP-62 was > 100 µM (inactive) in each case. The GI50 in the experiment with OVCAR-8, with OVCAR-5, in the experiment on BT-549, with HCC 2998, with KM12 and in the experiment on U-251 was > 100 µM (inactive) in each case. For the same compound, the GI50 in the experiment with MDA-N, in the experiment with OVCAR-4, in the experiment on ACHN, with SW-620, in the experiment with A498 and with NCI-H460 was > 100 µM (inactive) in each case. In addition, the GI50 with HL-60 and in the experiment on SK-MEL-5 was > 100 µM (inactive) throughout.
On to `COP(=O)(OC)C12CCOCCN1c1ccccc1C2=O` (stereo unspecified), for which the GI50 in the experiment with T47D, with UACC-62, with RPMI-8226, in the experiment on MOLT-4, with HOP-62 and in the experiment with OVCAR-8 was > 100 µM (inactive) throughout. Besides, the GI50 in the experiment on OVCAR-5, in the experiment with BT-549, with HCC 2998, in the experiment on KM12, in the experiment on U-251 and with MDA-N was > 100 µM (inactive) throughout. In addition, the GI50 in the experiment with OVCAR-4, in the experiment with ACHN, in the experiment with SW-620, in the experiment on A498, in the experiment with NCI-H460 and with HL-60 was > 100 µM (inactive) each time. In addition, the GI50 in the experiment on SK-MEL-5 was > 100 µM (inactive).
For the compound `COc1ccc(C2CC(C)(O)Oc3cc4c(cc32)OCO4)cc1` (stereo unspecified), the GI50 in the experiment with T47D is 2.02 µM (inactive); in the experiment on UACC-62, 36.9 µM (inactive); in the experiment on K562, 15.2 µM (inactive); in the experiment on RPMI-8226, 27.4 µM (inactive); in the experiment with MOLT-4, 22.1 µM (inactive); with HOP-62, 40.1 µM (inactive). For the same compound, the GI50 with OVCAR-8 was 35 µM (inactive); with OVCAR-5 it was 55.7 µM (inactive); with BT-549 it was 17.3 µM (inactive); in the experiment on HCC 2998 it was 47.6 µM (inactive); in the experiment on KM12, 27.3 µM (inactive); in the experiment on U-251, 31.4 µM (inactive). For the same compound, the GI50 in the experiment on MDA-N is 10.5 µM (inactive); in the experiment with OVCAR-4, 38.6 µM (inactive); in the experiment with ACHN it was 43.2 µM (inactive); in the experiment with SW-620, 36 µM (inactive); in the experiment with A498 it was 30.9 µM (inactive); with NCI-H460, 31.4 µM (inactive). Moreover, the GI50 in the experiment with HL-60 was 17.6 µM (inactive); in the experiment with SK-MEL-5, 25.4 µM (inactive).
As for `COC(=O)[C@@H]1CCc2nc3ccccc3c(=O)n21`, the GI50 in the experiment on T47D, in the experiment on UACC-62, in the experiment on K562, in the experiment with RPMI-8226, in the experiment on MOLT-4 and in the experiment on HOP-62 was > 100 µM (inactive) throughout. The GI50 with OVCAR-8, in the experiment with OVCAR-5, with BT-549, in the experiment with HCC 2998, in the experiment with KM12 and in the experiment with U-251 was > 100 µM (inactive) each time. Also, the GI50 in the experiment with MDA-N, in the experiment on OVCAR-4, in the experiment with ACHN, in the experiment on SW-620, in the experiment on A498 and with NCI-H460 was > 100 µM (inactive) throughout. For the same compound, the GI50 in the experiment with HL-60 and with SK-MEL-5 was > 100 µM (inactive) each time.
With `CCOc1cc2c(cc1O)C=C[C@@H]1[C@@H]2CC[C@]2(C)[C@@H](O)CC[C@@H]12`, the GI50 with T47D was 6.01 µM (inactive); in the experiment on UACC-62, 4.07 µM (inactive); in the experiment with K562, 1.8 µM (inactive); in the experiment with RPMI-8226, 2.52 µM (inactive); in the experiment on MOLT-4 it was 2.91 µM (inactive); with HOP-62, 3.85 µM (inactive). The GI50 in the experiment on OVCAR-8 is 4.29 µM (inactive); with OVCAR-5, 27.6 µM (inactive); with BT-549, 13.9 µM (inactive); in the experiment on HCC 2998, 6.34 µM (inactive); in the experiment with KM12 it was 5.3 µM (inactive); in the experiment on U-251, 3.43 µM (inactive). The GI50 in the experiment with MDA-N was 0.33 µM (active); in the experiment with OVCAR-4, 24.9 µM (inactive); with ACHN, 11.6 µM (inactive); in the experiment with SW-620, 1.87 µM (inactive); with A498 it was 7.11 µM (inactive); in the experiment with NCI-H460, 2.05 µM (inactive). For the same compound, the GI50 with HL-60 is 0.579 µM (active); with SK-MEL-5, 1.97 µM (inactive).
In the case of `COc1ccc(-c2cn3c(nc4ccccc43)c(/C=C/c3cccs3)n2)cc1`, the GI50 in the experiment on T47D is 43.2 µM (inactive); in the experiment on UACC-62 it was 68.2 µM (inactive); in the experiment with K562 it was 9.48 µM (inactive); with RPMI-8226 it was 15.4 µM (inactive); in the experiment on HOP-62, 83 µM (inactive); in the experiment on OVCAR-5, > 100 µM (inactive). For the same compound, the GI50 was 63 µM (inactive) in the experiment on BT-549; 49.5 µM (inactive) in the experiment with HCC 2998; 11.9 µM (inactive) in the experiment with KM12; 53.1 µM (inactive) in the experiment with U-251; 7.53 µM (inactive) with MDA-N; 49.7 µM (inactive) with OVCAR-4. For the same compound, the GI50 in the experiment on ACHN was > 100 µM (inactive); in the experiment with SW-620, 41.1 µM (inactive); in the experiment on A498 it was > 100 µM (inactive); with NCI-H460, 32.4 µM (inactive); in the experiment with HL-60, 20.4 µM (inactive); in the experiment with SK-MEL-5 it was 15.8 µM (inactive).
On to `NC(C(=O)O)c1cc(O)no1` (stereo unspecified), for which the GI50 in the experiment with T47D, in the experiment with UACC-62, in the experiment on K562, in the experiment on RPMI-8226, in the experiment on MOLT-4 and in the experiment with HOP-62 was > 100 µM (inactive) each time. Moreover, the GI50 with OVCAR-8 is > 100 µM (inactive); with OVCAR-5, > 100 µM (inactive); in the experiment with BT-549 it was > 42.5 µM (inactive); with HCC 2998, > 100 µM (inactive); in the experiment with KM12, > 100 µM (inactive); in the experiment on U-251, > 100 µM (inactive). Also, the GI50 in the experiment on MDA-N, in the experiment with OVCAR-4, in the experiment with ACHN, in the experiment with SW-620, in the experiment with A498 and in the experiment with NCI-H460 was > 100 µM (inactive) throughout. For the same compound, the GI50 with HL-60 is > 60 µM (inactive); in the experiment with SK-MEL-5 it was > 100 µM (inactive).
As for `CC(C)Cn1cnnc1NS(=O)(=O)c1cc(C(=O)NN)c(Cl)cc1S`, the GI50 with T47D, with UACC-62, in the experiment on K562, in the experiment with RPMI-8226, with MOLT-4 and in the experiment with HOP-62 was > 10 µM (inactive) throughout. Also, the GI50 in the experiment with OVCAR-8, in the experiment on OVCAR-5, in the experiment on BT-549, with HCC 2998, in the experiment on KM12 and with U-251 was > 10 µM (inactive) in each case. Besides, the GI50 in the experiment with MDA-N, in the experiment with OVCAR-4, in the experiment on ACHN, with SW-620, with A498 and with NCI-H460 was > 10 µM (inactive) throughout. The GI50 with HL-60 and in the experiment with SK-MEL-5 was > 10 µM (inactive) in each case.
For `CCOC(=O)c1c2ccccc2n2c(=O)n(-c3ccc(OC)cc3)nnc12`, the GI50 was 24.3 µM (inactive) in the experiment with T47D; 11.2 µM (inactive) in the experiment with UACC-62; 25.9 µM (inactive) in the experiment on K562; 25.1 µM (inactive) with RPMI-8226; 21.1 µM (inactive) with HOP-62; 20.6 µM (inactive) in the experiment on OVCAR-8. The GI50 was 46.1 µM (inactive) in the experiment with OVCAR-5; 26.5 µM (inactive) in the experiment on BT-549; > 100 µM (inactive) in the experiment on HCC 2998; 88.1 µM (inactive) in the experiment on KM12; 16.9 µM (inactive) in the experiment on U-251; > 100 µM (inactive) in the experiment with MDA-N. The GI50 is 22.5 µM (inactive) in the experiment on OVCAR-4; 31.1 µM (inactive) with ACHN; > 42.4 µM (inactive) in the experiment on SW-620; 44.3 µM (inactive) in the experiment with A498; > 95.1 µM (inactive) in the experiment on NCI-H460; 21.1 µM (inactive) with HL-60. For the same compound, the GI50 in the experiment with SK-MEL-5 is 58.5 µM (inactive).
